In patent publication US20260132129A1 (Genesis Therapeutics, Inc., priority 2022, published 2026):
pIC50: −log10 of the molar value.

Target: T1, PI3Kα H1047R (T47D cells) (Homo sapiens, UniProt P42336, H1047R)
T1 construct: endogenous in cells; host or cells: T47D cells
Assay: PI3Kα cellular assay: pAKT HTRF in T47D cells after EGF stimulation
Type: cell-based
Conditions: for pIC50: T47D cells (PI3Kα H1047R), pAKT S473 HTRF, EGF stimulation; for T47D pAKT S473 HTRF IC50 (H1047R): T47D (H1047R) selectivity over SKBR3 (WT): selectivity of T47D (H1047R) over SKBR3 (WT) pAKT IC50
Method in brief: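 T47D cells (PIK3CA H1047R) serum-starved 16 h, then treated 1 h at 37 °C with compound (10,000 nM top, 3-fold steps to 0.5 nM). After 10 min stimulation with 20 ng/mL EGF, cells were lysed and pAKT measured by HTRF.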

T1 sequence (P42336 whole entry H1047R): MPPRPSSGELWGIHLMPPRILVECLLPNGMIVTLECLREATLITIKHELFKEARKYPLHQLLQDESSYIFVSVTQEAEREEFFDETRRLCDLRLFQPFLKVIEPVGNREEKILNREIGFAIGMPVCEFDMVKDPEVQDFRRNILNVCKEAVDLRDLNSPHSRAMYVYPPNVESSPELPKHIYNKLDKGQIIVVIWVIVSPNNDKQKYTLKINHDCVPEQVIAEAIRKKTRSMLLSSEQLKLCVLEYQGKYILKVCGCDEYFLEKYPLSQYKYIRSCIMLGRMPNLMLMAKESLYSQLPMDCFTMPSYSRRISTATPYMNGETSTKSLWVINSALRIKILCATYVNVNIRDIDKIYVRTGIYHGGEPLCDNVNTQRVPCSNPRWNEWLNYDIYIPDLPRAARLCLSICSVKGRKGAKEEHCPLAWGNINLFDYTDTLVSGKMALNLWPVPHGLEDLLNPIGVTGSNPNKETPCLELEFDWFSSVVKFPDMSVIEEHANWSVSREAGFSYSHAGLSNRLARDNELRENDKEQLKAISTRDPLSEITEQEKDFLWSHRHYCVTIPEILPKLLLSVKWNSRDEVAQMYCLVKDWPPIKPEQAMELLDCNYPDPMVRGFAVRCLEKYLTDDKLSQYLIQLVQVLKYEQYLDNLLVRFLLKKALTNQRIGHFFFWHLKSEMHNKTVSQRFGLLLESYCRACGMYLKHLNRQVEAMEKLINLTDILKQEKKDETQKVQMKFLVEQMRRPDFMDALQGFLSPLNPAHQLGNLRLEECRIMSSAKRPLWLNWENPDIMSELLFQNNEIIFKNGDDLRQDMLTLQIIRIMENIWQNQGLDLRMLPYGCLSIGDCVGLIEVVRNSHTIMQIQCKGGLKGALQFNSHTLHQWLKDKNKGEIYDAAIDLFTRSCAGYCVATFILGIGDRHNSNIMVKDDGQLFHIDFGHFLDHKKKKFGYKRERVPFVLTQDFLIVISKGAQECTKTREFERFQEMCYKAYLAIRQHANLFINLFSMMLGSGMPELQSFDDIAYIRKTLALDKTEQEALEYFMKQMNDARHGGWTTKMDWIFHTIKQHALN
T1 sequence (P27986 whole entry partner): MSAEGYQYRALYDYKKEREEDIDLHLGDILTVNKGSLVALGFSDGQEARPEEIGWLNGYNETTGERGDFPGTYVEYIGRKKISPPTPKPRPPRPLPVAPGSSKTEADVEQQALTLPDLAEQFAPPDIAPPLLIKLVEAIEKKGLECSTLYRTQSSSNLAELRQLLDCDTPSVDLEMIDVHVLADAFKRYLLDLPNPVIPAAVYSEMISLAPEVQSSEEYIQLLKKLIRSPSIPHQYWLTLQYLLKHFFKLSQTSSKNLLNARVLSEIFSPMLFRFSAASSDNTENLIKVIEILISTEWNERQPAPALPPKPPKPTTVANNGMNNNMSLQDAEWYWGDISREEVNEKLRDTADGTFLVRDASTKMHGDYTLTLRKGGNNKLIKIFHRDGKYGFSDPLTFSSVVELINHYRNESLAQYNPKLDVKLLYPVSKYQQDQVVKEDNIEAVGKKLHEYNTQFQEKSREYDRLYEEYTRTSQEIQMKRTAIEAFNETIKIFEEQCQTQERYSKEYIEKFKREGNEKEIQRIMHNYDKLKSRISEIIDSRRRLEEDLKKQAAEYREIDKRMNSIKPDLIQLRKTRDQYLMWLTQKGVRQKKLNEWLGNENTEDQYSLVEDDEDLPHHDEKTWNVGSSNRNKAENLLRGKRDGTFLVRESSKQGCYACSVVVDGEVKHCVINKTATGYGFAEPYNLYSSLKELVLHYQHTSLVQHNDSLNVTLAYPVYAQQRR

| Structure (SMILES) | pIC50 | T47D pAKT S473 HTRF IC50 (H1047R): T47D (H1047R) selectivity over SKBR3 (WT) |
| --- | --- | --- |
| Cc1cc([C@@H](C)N[C@H](C(=O)O)c2ccccc2)c2nc(N3CCOCC3)cc(=O)n2c1 [Compound 648] | < 5.70 | C (C denotes ≤5-fold) |
| Cc1cc([C@@H](C)N[C@@H](C(=O)O)c2ccccc2)c2nc(N3CCOCC3)cc(=O)n2c1 [Compound 649] | < 5.70 | C (C denotes ≤5-fold) |
| Cc1cc([C@H](C)N[C@H](C(=O)O)c2ccccc2)c2nc(N3CCOCC3)cc(=O)n2c1 [Compound 650] | < 5.70 | C (C denotes ≤5-fold) |
| Cc1cc([C@H](C)N[C@@H](C(=O)O)c2ccccc2)c2nc(N3CCOCC3)cc(=O)n2c1 [Compound 651] | < 5.70 | C (C denotes ≤5-fold) |
| Cc1cc([C@H](C)Nc2ccccc2C(=O)O)c2nc(N3Cc4ccccc4[C@H]3C)cc(=O)n2c1 [Compound 654] | 5.70 to 6.30 | B (B denotes 20-fold≥value>5-fold) |
| Cc1cc([C@@H](C)Nc2ccccc2C(=O)O)c2nc(N3Cc4ccccc4[C@H]3C)cc(=O)n2c1 [Compound 655] | < 5.70 | C (C denotes ≤5-fold) |
| Cc1cc(C(C)Nc2ccccc2C(=O)O)c2nc(-c3ccc(C(=O)N(C)C)cc3)cc(=O)n2c1 (stereo not shown) [Compound 657] |  | B (B denotes 20-fold≥value>5-fold) |
| Cc1cc([C@@H](C)Nc2ccccc2C(=O)O)c2nc(-c3ccc(C(=O)N(C)C)cc3)cc(=O)n2c1 [Compound 658] | 6.30 to 7.00 | A (A denotes >20-fold) |
| Cc1cc([C@H](C)Nc2ccccc2C(=O)O)c2nc(-c3ccc(C(=O)N(C)C)cc3)cc(=O)n2c1 [Compound 659] | < 5.70 | C (C denotes ≤5-fold) |
| CC(=O)c1ccc(-c2cc(=O)n3cc(C)cc([C@@H](C)Nc4ccccc4C(=O)O)c3n2)cc1 [Compound 660] | > 7.00 | A (A denotes >20-fold) |
| CC(=O)c1ccc(-c2cc(=O)n3cc(C)cc([C@H](C)Nc4ccccc4C(=O)O)c3n2)cc1 [Compound 661] | < 5.70 | C (C denotes ≤5-fold) |
| Cc1cc([C@@H](C)Nc2ccccc2C(=O)O)c2nc(-c3cc(C)c(F)c(C)c3)cc(=O)n2c1 [Compound 662] | 6.30 to 7.00 | A (A denotes >20-fold) |
| Cc1cc([C@H](C)Nc2ccccc2C(=O)O)c2nc(-c3cc(C)c(F)c(C)c3)cc(=O)n2c1 [Compound 663] | < 5.70 | C (C denotes ≤5-fold) |
| Cc1cc(C(C)Nc2ccccc2-c2ccnnc2)c2nc(N3Cc4ccccc4C3)cc(=O)n2c1 (stereo not shown) [Compound 665, 2-(isoindolin-2-yl)-7-methyl-9-(1-((2-(pyridazin-4-yl)phenyl)amino)ethyl)-4H-pyrido[1,2-a]pyrimidin-4-one] | 6.30 to 7.00 | A (A denotes >20-fold) |
| Cc1cc(C(C)Nc2cccc3c2OCC(=O)N3)c2nc(N3CCOCC3)cc(=O)n2c1 (stereo not shown) [Compound 684] | < 5.70 | C (C denotes ≤5-fold) |
| Cc1cc([C@@H](C)Nc2cccc3c2OCC(=O)N3)c2nc(N3CCOCC3)cc(=O)n2c1 [Compound 685] | < 5.70 | C (C denotes ≤5-fold) |
| Cc1cc([C@H](C)Nc2cccc3c2OCC(=O)N3)c2nc(N3CCOCC3)cc(=O)n2c1 [Compound 686] | < 5.70 | C (C denotes ≤5-fold) |
| Cc1cc([C@H](C)Nc2cccc3c2CCC(=O)N3)c2nc(N3CCOCC3)cc(=O)n2c1 [Compound 688] | < 5.70 | C (C denotes ≤5-fold) |
| Cc1cc(C(C)Nc2ccccc2C(=O)O)c2nc(-c3ccc(F)cc3)c(C)c(=O)n2c1 (stereo not shown) [Compound 691, 2-((1-(2-(4-fluorophenyl)-3,7-dimethyl-4-oxo-4H-pyrido[1,2-a]pyrimidin-9-yl)ethyl)amino)benzoic acid] | > 7.00 | A (A denotes >20-fold) |
| Cc1cc(C(C)Nc2ccccc2C(=O)O)c2nc(-c3ccc4c(c3)c(C)nn4C)cc(=O)n2c1 (stereo not shown) [Compound 695] |  | A (A denotes >20-fold) |

| Structure (SMILES) | pIC50 | T47D pAKT S473 HTRF IC50 (H1047R): T47D (H1047R) selectivity over SKBR3 (WT) |
| --- | --- | --- |
| Cc1cc([C@H](C)Nc2ccccc2C(=O)O)c2nc(-c3ccc4c(c3)c(C)nn4C)cc(=O)n2c1 [Compound 697] |  | C (C denotes ≤5-fold) |
| Cc1cc(C(C)Nc2ccccc2-c2ccnnc2)c2nc(N3CC(C)OC(C)C3)cc(=O)n2c1 (stereo not shown) [Compound 698] |  | C (C denotes ≤5-fold) |
| Cc1cc([C@@H](C)Nc2ccccc2-c2ccnnc2)c2nc(N3CC(C)OC(C)C3)cc(=O)n2c1 (stereo partly shown) [Compound 699] |  | C (C denotes ≤5-fold) |
| Cc1cc([C@H](C)Nc2ccccc2-c2ccnnc2)c2nc(N3C[C@@H](C)O[C@@H](C)C3)cc(=O)n2c1 [Compound 700] |  | A (A denotes >20-fold) |
| Cc1cc(C(C)Nc2ccccc2C(=O)O)c2nc(-c3ccc4c(c(N)nn4C)c3C)cc(=O)n2c1 (stereo not shown) [Compound 701] | < 5.70 | C (C denotes ≤5-fold) |
| Cc1cc([C@@H](C)Nc2ccccc2C(=O)O)c2nc(-c3ccc4c(c(N)nn4C)c3C)cc(=O)n2c1 [Compound 702] | 5.70 to 6.30 | B (B denotes 20-fold≥value>5-fold) |
| Cc1cc([C@H](C)Nc2ccccc2C(=O)O)c2nc(-c3ccc4c(c(N)nn4C)c3C)cc(=O)n2c1 [Compound 703] | < 5.70 | C (C denotes ≤5-fold) |
| Cc1cc([C@@H](C)Nc2ccccc2C(=O)O)c2nc(-c3cc4c(N)nn(C)c4cc3C)cc(=O)n2c1 [Compound 704] | < 5.70 | C (C denotes ≤5-fold) |
| Cc1cc([C@H](C)Nc2ccccc2C(=O)O)c2nc(-c3cc4c(N)nn(C)c4cc3C)cc(=O)n2c1 [Compound 705] | < 5.70 | C (C denotes ≤5-fold) |
| Cc1cc(C(C)Nc2ccccc2C(=O)O)c2nc(-c3ccc4c(c(N)nn4C)c3C)c(C)c(=O)n2c1 (stereo not shown) [Compound 706] | 5.70 to 6.30 | B (B denotes 20-fold≥value>5-fold) |
| Cc1cc([C@H](C)Nc2ccccc2C(=O)O)c2nc(N3C[C@@H](C)C(F)(F)[C@@H](C)C3)cc(=O)n2c1 [Compound 712, 2-(((S)-1-(2-((3S,5R)-4,4-difluoro-3,5-dimethylpiperidin-1-yl)-7-methyl-4-oxo-4H-pyrido[1,2-a]pyrimidin-9-yl)ethyl)amino)benzoic acid] | < 5.70 | C (C denotes ≤5-fold) |
| Cc1cc([C@H](C)Nc2cccc3c2C(=O)NCC3)c2nc(N3CCOCC3)cc(=O)n2c1 [Compound 714] |  | C (C denotes ≤5-fold) |
| Cc1cc([C@@H](C)Nc2ccccc2-c2ccnnc2)c2nc(C3Cc4ccccc4C3)cc(=O)n2c1 [Compound 718] |  | C (C denotes ≤5-fold) |
| Cc1cc(C(C)Nc2ccccc2C(=O)O)c2nc(-c3ccc4c(c(N)nn4C)c3C)c(C)c(=O)n2c1 (stereo not shown) [Compound 720] | 5.70 to 6.30 | B (B denotes 20-fold≥value>5-fold) |
| Cc1cc(C(C)Nc2ccccc2C(=O)O)c2nc(-c3ccc(F)cc3)c(C)c(=O)n2c1 (stereo not shown) [Compound 721] | 6.30 to 7.00 |  |
| CCn1nc(N)c2cc(-c3cc(=O)n4cc(C)cc([C@@H](C)Nc5ccccc5C(=O)O)c4n3)ccc21 [Compound 722] | > 7.00 | A (A denotes >20-fold) |
| CCn1nc(N)c2c(C)c(-c3cc(=O)n4cc(C)cc([C@H](C)Nc5ccccc5C(=O)O)c4n3)ccc21 [Compound 723] | < 5.70 | C (C denotes ≤5-fold) |
| Cc1cc(C(C)Nc2ccccc2C(=O)O)c2nc(-c3ccc4c(c3)c(C(F)(F)F)nn4C)cc(=O)n2c1 (stereo not shown) [Compound 724] | 6.30 to 7.00 | A (A denotes >20-fold) |
| Cc1cc(C(C)Nc2ccccc2C(=O)O)c2nc(-c3ccc4c(c3)c(C)nn4C)cc(=O)n2c1 (stereo not shown) [Compound 725] | > 7.00 | A (A denotes >20-fold) |
| Cc1cc(C(C)Nc2ccccc2C(=O)O)c2nc(-c3ccc4c(c3)CCN4CC(N)=O)cc(=O)n2c1 (stereo not shown) [Compound 726] |  | B (B denotes 20-fold≥value>5-fold) |
